Converted amounts (≈) assume the structure as drawn.
system: Vaccinia virus; test: Antiviral activity against Vaccinia virus infected in primary rabbit kidney cells assessed as inhibition of virus-induced cytopathogenicity; format: functional; settings: Orthopoxvirus vaccinia

With `O=c1[nH]c(=O)n([C@H]2C[C@H](O)[C@@H](CO)O2)cc1O` as the compound, how does the MIC read?
Its MIC is 14 µM (≈ 3.42 µg/mL).

How did the MIC turn out when `C#CCOc1cn([C@H]2C[C@H](O)[C@@H](CO)O2)c(=O)[nH]c1=O` was run?
The MIC was 35 µM (≈ 9.88 µg/mL).

Which MIC does the source give for `C=CCOc1cn([C@@H]2O[C@H](CO)[C@@H](O)[C@H]2O)c(=O)[nH]c1=O` here?
The MIC was over 600 µM.

How did the MIC turn out when `C=CCOc1cn([C@H]2C[C@H](O)[C@@H](CO)O2)c(=O)[nH]c1=O` was run?
Its MIC is 70 µM (≈ 19.9 µg/mL).

For `O=c1[nH]c(=O)n([C@@H]2O[C@H](CO)[C@@H](O)[C@H]2O)cc1OCc1ccccc1`, which MIC is on record?
Its MIC is over 600 µM.

With `O=c1[nH]c(=O)n([C@H]2C[C@H](O)[C@@H](CO)O2)cc1OCc1ccccc1` as the compound, how does the MIC read?
Its MIC is over 300 µM.

`O=c1[nH]c(=O)n([C@@H]2O[C@H](CO)[C@@H](O)[C@H]2O)cc1OCc1ccc([N+](=O)[O-])cc1` was tested. Which MIC did it give?
The MIC was over 600 µM.

Which MIC does the source give for `O=c1[nH]c(=O)n([C@H]2C[C@H](O)[C@@H](CO)O2)cc1OCc1ccc([N+](=O)[O-])cc1` here?
Its MIC is over 260 µM.

Which MIC does the source give for `Cc1ccc(COc2cn([C@@H]3O[C@H](CO)[C@@H](O)[C@H]3O)c(=O)[nH]c2=O)cc1` here?
The MIC was over 600 µM.

With `NC(=O)COc1cn([C@@H]2O[C@H](CO)[C@@H](O)[C@H]2O)c(=O)[nH]c1=O` as the compound, how does the MIC read?
The MIC was over 600 µM.

For `NC(=O)COc1cn([C@H]2C[C@H](O)[C@@H](CO)O2)c(=O)[nH]c1=O`, which MIC is on record?
The MIC was 130 µM (≈ 39.2 µg/mL).

Which MIC does the source give for `O=C(O)COc1cn([C@H]2C[C@H](O)[C@@H](CO)O2)c(=O)[nH]c1=O` here?
The MIC was over 600 µM.

How did the MIC turn out when `O=c1[nH]c(=O)n([C@H]2C[C@H](O)[C@@H](CO)O2)cc1I` [IDOXURIDINE] was run?
The MIC was 1.4 µM (≈ 0.496 µg/mL).

Which MIC does the source give for `Nc1ncnc2c1ncn2[C@@H]1O[C@H](CO)[C@@H](O)[C@@H]1O` [VIDARABINE] here?
Its MIC is 1.4 µM (≈ 0.374 µg/mL).

Source: ChEMBL document CHEMBL3244322, “5-O-Alkylated derivatives of 5-hydroxy-2'-deoxyuridine as potential antiviral agents. Anti-herpes activity of 5-propynyloxy-2'-deoxyuridine” (J Med Chem, 1978)
